Experimental findings from article PMC3923439, “Anti-inflammatory properties of a novel peptide interleukin 1 receptor antagonist” (Journal of Neuroinflammation, 2014) are described below.

The test system of series [1] is LPS-induced neuroinflammation. The series can be described thus: Lipopolysaccharide-induced impairment of social behavior. Type of series: in vivo. Particulars: rat, Ana 100 mg/kg s.c. As for the experimental part: The peripheral administration of LPS, the active fragment of bacterial endotoxin, results in an increase in the plasma levels of all proinflammatory cytokines and behavioral depression. LPS-induced behavioral depression was assessed by measuring the reduction of the duration of social interaction during 4-minute sessions. Six- to seven-week-old rats were handled for five days, habituated to the test cages and the experiment room and trained for social interaction with three-week-old juvenile rats introduced into the test cage for four minutes two days before the actual experiment. On the day of the experiment, the rats were intraperitoneally injected (i.p.) with saline or LPS (Escherichia coli 0111:B4; Sigma-Aldrich) dissolved in saline (250 μg/kg). Immediately after the i.p. injection, Ilantide-t (Ila; 10 mg/kg, equivalent to 2.1 μmol/kg), Ana ([…], equivalent to 5.8 μmol/kg) or saline was injected subcutaneously. The volume of all of the injections was 1.0 ml/kg. Six experimental groups were used: vehicle i.p./vehicle s.c. (veh/veh; n = 10), vehicle i.p./Ilantide-t s.c. (veh/Ila; n = 8), vehicle i.p./Ana s.c. (veh/Ana; n = 9), LPS i.p./vehicle s.c. (LPS/veh; n = 10), LPS i.p./Ilantide-t s.c. (LPS/Ila; n = 11) and LPS i.p./Ana s.c. (LPS/Ana; n = 11). The injections and weighing of the rats were performed immediately after the first test session (0 h), and the animals were tested and weighed again 2, 4, 6, 8, and 24 hours later. Different juvenile animals were presented on each occasion. Social interaction consisted of anogenital sniffing, licking and chewing the fur of the juveniles by the experimental animals and was monitored with a video camera. […] The duration of social interaction at each time point is expressed as the percentage of baseline values and was averaged for each experimental group. Social interaction was scored by an observer who was blinded to the treatment of the animals. For evaluation of levels of pro- and anti-inflammatory cytokines in blood, rats were injected with LPS and then immediately with either vehicle (n = 8) or Ilantide-t (n = 8) as described above. In addition, a control group of animals (n = 4) was treated with Ilantide-t alone (control). Blood samples were collected at 0, 2 and 6 hours after injections as described for the pharmacokinetics study and stored at -20°C until use. The levels of IL-6, IFN-γ and IL-10 were determined using corresponding rat ELISA kits according to the manufacturer’s protocols (all from BD Biosciences, San Diego, CA, USA).

The test system of series [2] is neonatal rat pancreatic islets. The series can be described thus: IL-1β-induced nitric oxide production (nitrite, Griess reagent). Type of series: cell-based. Particulars: nitrites in supernatants of the apoptosis experiments, four independent experiments. As to the method: (§1) For cell death detection, rat islets were incubated with 150 pg/ml IL-1β (BD Pharmingen, San Diego, CA, USA) alone or in combination with various concentrations of Ana and Ilantide for 24 hours at 37°C in humidified atmospheric air. Rat islet cell death was assessed by cell death detection ELISA (Roche, Lund, Sweden) as previously described. As a surrogate measure of nitric oxide production, Griess reagent (1:1 aqueous mixture of 0.1% naphthylethylenediamine hydrochloride and 1% sulfanilamide + 5% H3PO4) was mixed in a 1:1 ratio with 100 μl of supernatant samples to determine the nitrite content in supernatants from the cell death assays described above.
Figure 8 Effect of Ilantide on interleukin 1β-induced nitric oxide production. Anakinra (A) but none of the peptides, Ilantide-m (B) or Ilantide-t (C), inhibited interleukin 1β (IL-1β)-induced nitric oxide production. The results of four independent experiments are shown. *P < 0.05 and **P < 0.01 compared with cultures treated with IL-1 alone (one-way analysis of variance followed by Dunnett’s post hoc test).

Series [3] deals with neonatal rat pancreatic islets. In words: IL-1β-induced rat islet cell apoptosis (cell death detection ELISA). The note with it: rat islets, 8.68 nM (150 pg/ml) IL-1β, 24 hours. Type of series: cell-based. As for the experimental part: Neonatal rat islets were isolated from 3- to 6-day-old outbred Wistar rats (Taconic, Ejby, Denmark) as previously described. Islets were precultured and maintained in RPMI 1640 medium (Gibco/Life Technologies) supplemented with 20 mmol/L HEPES buffer, 0.038% (wt/vol) NaHCO3, 100 U/ml penicillin, 100 µg/ml streptomycin and 10% (vol/vol) newborn calf serum (NCS) at 37°C in humidified atmospheric air. Prior to experimentation, the islets were randomly distributed to 24-well dishes and incubated for 2 hours in RPMI 1640 medium supplemented as described above, but with 0.5% (vol/vol) NCS relevant reagents were added as indicated.
as §1
Figure 7 Effect of Ilantide on interleukin 1β-induced rat islet cell apoptosis. Rat pancreatic islets were preincubated for 30 minutes in the absence or presence of various concentrations of anakinra (A), Ilantide-m (B) or Ilantide-t (C) and then exposed to […] interleukin 1β (IL-1β) for 24 hours. Cytokine-induced apoptosis was determined by cell death detection enzyme-linked immunosorbent assay. Apoptosis rates are presented as fold induction compared with untreated control islets (white bars). The data from four independent experiments are presented as mean ± SEM. *P < 0.05 and **P < 0.01 compared with cultures treated with IL-1β alone (one-way analysis of variance followed by Dunnett’s post hoc test).

“Ana: recombinantly produced N-terminal methionylated, nonglycosylated version of human IL-1Ra [reference compound]”: the “Effect on LPS-induced body weight decrease” value in series [1] (24 hours after LPS 250 μg/kg i.p., Ilantide-t 10 mg/kg, P < 0.05) is “attenuated the anorexigenic effect of LPS”. Further, the “Social behavior per se (without LPS)” value in series [1] (Ilantide-t 10 mg/kg s.c., vehicle i.p.) was “did not modify social behavior per se”. Further, in series [1] (LPS 250 μg/kg i.p., Ilantide-t 10 mg/kg s.c., 2 to 24 hours), the “Effect on LPS-induced depression of social activity (sickness behavior)” value was “No significant effect”. Besides, the “Inhibition of IL-1β-induced nitric oxide production” value in series [2] is given as “inhibited”. In addition, the “Concentration giving maximal inhibition of IL-1β-induced apoptosis” value in series [3] was found to be 86.8 µM. The “Maximal inhibition of IL-1β-induced apoptosis” value in series [3] (30 minutes preincubation, four independent experiments) is on record as 64%.
